For data set [1], the system named is L. amazonensis promastigotes. Also noted: method as in Brissow et al. 2017. Particulars: ref Brissow et al. 2017; cited from earlier work.
Data set [2] concerns Vero cells. Kind of data set: Cytotoxicity assay using Vero cells, MTT. It counts as cell-based, African green monkey. To be noted: for IC50: Chlorocebus sabaeus, Vero, 72 h, read-out: Vero IC50; for selectivity index (SI): IC50 Vero cells/IC50 L. (V.) braziliensis; for toxicity to Vero cells (in words): concentration range tested. The method, then:
Cytotoxicity assay using Vero cells - African green monkey kidney cells (Vero) were used as model of normal cells and were provided by Erna Kroon (Federal University of Minas Gerais, Brazil). The cells were maintained in DMEM medium (Sigma-Aldrich), containing 5% FBS (Gibco/Brl), enriched with 1% antibiotic solution (100 IU/mL penicillin and 100 µg/mL streptomycin, Gibco/Brl). Vero cells were inoculated in 96 well plates at 1 × 10^4 cells/well and the plates incubated for 24 h at 37°C. The samples and amphotericin B (positive control) were dissolved in DMSO (Sigma-Aldrich). […] All cell cultures were incubated in a 5% CO2/95% humidified air atmosphere at 37°C for 72 h. Wells with 0.5% v/v DMSO were used as a negative control. All medium and reagents used in the assays were endotoxin free. Cell viability was estimated by measuring the mitochondrial reduction of MTT ([Monks et al. 1991]). The samples were tested in triplicate in two independent experiments. The results were expressed as percentage of viability in relation to the negative control (DMSO, 0.5% v/v), calculated as follows: percentage of cell viability (%) = [(treated mean OD / negative control) x 100] and obtained from two independent experiments performed in triplicate. The IC50 values were calculated by non-linear regression using GraphPad Prism® Version 5.01 software. The selective index (SI) was calculated by dividing IC50 Vero cells/IC50 L. (V.) braziliensis.

Data set [3] concerns amastigote forms of L. (V.) braziliensis strain MHOM/BR/75/M2903. Also noted: method as in de Morais-Teixeira et al. 2014. To be noted: different time periods of drug exposure (three, five, and seven days); ref de Morais-Teixeira et al. 2014; cited from earlier work.
Data set [4] relates to intracellular amastigote forms of Leishmania (Viannia) braziliensis. The data set can be described thus: Antileishmanial assay on intracellular amastigotes of L. (V.) braziliensis LUC (firefly luciferase reporter) in THP-1 macrophages. The class given is cell-based. To be noted: for IC50: Leishmania braziliensis, intracellular amastigotes in THP-1 macrophages, luciferase activity, 72 h; for activity against amastigote forms of L. (V.) braziliensis (in words): L. (V.) braziliensis expressing firefly luciferase. The method, then: Assays with L. (V.) braziliensis - L. (V.) braziliensis (strain MHOM/BR/1994/H3227) promastigotes were maintained in minimum essential culture medium (α-MEM) (Gibco/Brl, Grand Island, NY, USA) supplemented with 10% (v/v) heat inactivated foetal bovine serum (FBS, Cultilab, Campinas, SP, Brazil), […] kanamycin, […] ampicillin, 2 mm L-glutamine, 5 mg/mL hemin, and 5 mm biopterin (Sigma-Aldrich, St. Louis, USA), at pH 7.0 and incubated at 25°C.
For this assay, we used L. (V.) braziliensis LUC expressing firefly luciferase as a reporter gene. The transfection was performed as previously described ([Roy et al. 2000]). Human monocyte-derived macrophage cell line, THP-1, was maintained in RPMI 1640 medium supplemented with 10% FBS and differentiated in the presence of 20 ng/mL phorbol myristate for 72 h at 37°C. Cells were infected with L. (V.) braziliensis LUC promastigotes at a parasite/macrophage ratio of 10:1 for 3 h in a white walled 96-well tissue culture plate. Non-internalised parasites were removed by five washes with HEPES/NaCl buffer (20 mm HEPES, 0.15 M NaCl, 10 mm glucose, pH 7.2). The infected cells were then treated with 1.5-200.0 µg/mL of sample-tests and 0.006-0.8 µM of amphotericin B (positive control). After 72 h, RPMI was aspirated and luciferase activity was assessed by adding 20 µL reconstituted One-Glo™ Luciferase Assay system solution as enzyme substrate, following the manufacturer's instructions (Promega, Madison, WI, USA). Luciferase activity was measured by luminescence detection in a SpectraMax M5 luminometer (Molecular Devices, Sunnyvale, CA, USA) using 1 s integration/well. Non-infected THP-1 macrophages were used as signal background while non-treated infected THP-1 macrophages were used as control for growth comparison. Antileishmanial activity was expressed as the concentration required to inhibit 50% of parasite growth, as calculated by sigmoidal regression analyses using GraphPad Prism (Version 6.0c, GraphPad Software Inc., La Jolla, CA, USA).

Data set [5] concerns THP-1 cells. The data set can be described thus: Toxicity on host THP-1 macrophages, MTT. It counts as cell-based. To be noted: for IC50: Homo sapiens, read-out: THP-1 IC50; for toxicity to THP-1 cells (in words): concentration range tested. The method, then:
To assess toxicity of the compounds on the host cells, THP-1 macrophages were seeded in 96-well plates at a density of 2 × 10^5 cells per well, differentiated in the presence of 20 ng/mL phorbol myristate for 72 h at 37°C, and treated with 1.5-200.0 µg/mL of the compounds or 1.5-200.0 μM of Amphotericin B. After 72 h treatment with compounds, cell death was estimated using MTT, which is metabolised by viable cells resulting in a purple product that can be quantified using a spectrophotometer (absorbance at 570 nm). The results were calculated from the absorbance measurements using the percentage of cell death in relation to the untreated cell controls.

Data set [6] deals with BC-1 human breast cancer cells. More on the design: method as in Anderson et al. 1985. To be noted: ref Anderson et al. 1985; cited from earlier work.
The subject of data set [7] is A549 cells. More on the design: method as in Calcul et al. 2013. To be noted: at 25 nM; ref Calcul et al. 2013; cited from earlier work.
Data set [8] deals with KB cells. More on the design: method as in Anderson et al. 1985. To be noted: human mouth epidermoid carcinoma; ref Anderson et al. 1985; cited from earlier work.
The test system of data set [9] is Plasmodium falciparum (3D7). More on the design: method as in Calcul et al. 2013. To be noted: at 25 nM; ref Calcul et al. 2013; cited from earlier work.
The subject of data set [10] is Leishmania promastigotes and intracellular amastigotes in macrophages. More on the design: method as in Roy et al. (2014). To be noted: ref Roy et al. (2014); cited from earlier work.
On the set-up of data set [11]: method as in DrugBank Database, DrugBank Version 5.0. Particulars: Experimental property; ref DrugBank Database, DrugBank Version 5.0; cited from earlier work.
In data set [12] the test system is tumour xenographs. More on the design: method as in Rahier et al. (2015). Particulars: ref Rahier et al. (2015); cited from earlier work.

Values after ≈ are worked out from the molar mass of the structure shown. Where two headings read alike, the source gives them in different places.

18-des-hydroxy cytochalasin H: the “IC50, viability of L. amazonensis promastigotes” value in data set [1] was 9.2 µg/mL.
Turning to `C[C@@H]1[C@H](O)[C@@H](C)/C=C/C=C/C=C/C=C/C=C/C=C/C=C/[C@H](O[C@@H]2O[C@H](C)[C@@H](O)[C@H](N)[C@@H]2O)C[C@@H]2O[C@](O)(C[C@@H](O)C[C@@H](O)[C@H](O)CC[C@@H](O)C[C@@H](O)CC(=O)O[C@H]1C)C[C@H](O)[C@H]2C(=O)O` [Amphotericin B, reference compound], the IC50 in [2] (MTT) is 18.2 µM; in data set [3], 0.02 to 0.06 µM; in [4], 0.12 µM; in data set [5] (THP-1, MTT, 72 h) it was 12 µM.
`CC(=O)O[C@@]1(CO)CC[C@H](C(C)C)[C@H]2C=C(C(=O)O)COC(=O)[C@@H]21` [Compound 1, (+)-(5aS,6R,9S,9aS)-9-(acetyloxy)-9-(hydroxymethyl)-1-oxo-6-(propan-2-yl)-1,3,5a,6,7,8,9,9a-octahydro-2-benzoxepine-4-carboxylic acid]: in [2] (MTT), the IC50 is above 200 µM and the “toxicity to Vero cells (in words)” value is “low toxicity”. In addition, in data set [2], the “selectivity index (SI)” value came to 9.3. Also, in data set [4], the “activity against amastigote forms of L. (V.) braziliensis (in words)” value (“activity against amastigote forms” below) is “active” and the IC50 was 21.4 µM. The IC50 in [5] (THP-1, MTT, 72 h) is above 200 µM. Moreover, the “toxicity to THP-1 cells (in words)” value in [5] (MTT) is “low toxicity”.
With `CC(=O)OCCCCC/C=C(/C(=O)O)[C@H](C)C(=O)O` [Compound 2, (+)-6′-acetoxy-piliformic acid], the IC50 in data set [2] (MTT) is above 200 µM; in data set [4], 28.3 µM; in data set [5] (THP-1, MTT, 72 h), above 200 µM. The “toxicity to Vero cells (in words)” value in [2] (MTT) is “low toxicity”. Also, in data set [5] (MTT), the “toxicity to THP-1 cells (in words)” value is recorded as “low toxicity”.
As for `C=CCCC/C=C(/C(=O)O)[C@H](C)C(=O)O` [Compound 3], the IC50 in data set [2] (MTT) was above 200 µM; in data set [4], above 200 µM; in data set [5] (THP-1, MTT, 72 h), above 200 µM. Also, in data set [4], the “activity against amastigote forms” value was “not active”.
Regarding `CCCCC/C=C(/C(=O)O)[C@H](C)C(=O)O` [Compound 4, (+)-piliformic acid], the “IC50 BC-1 human breast cancer cells” value in data set [6] is recorded as 5 µg/mL (≈ 23.3 µM). For the same compound, the IC50 in [2] (MTT) is above 200 µM; in [4] it was 78.5 µM; in [5] (THP-1, MTT, 72 h), above 200 µM. In addition, the “selectivity index (SI)” value in data set [2] turned out to be 2.5. The “activity against A549 cells (in words)” value in [7] is “inactive”. Also, in data set [8], the “IC50 KB cells” value is on record as 13 µg/mL (≈ 60.7 µM). Besides, in [9], the “activity against Plasmodium falciparum (3D7) (in words)” value is “inactive”.
For `CC(C)C1CCC2(O)COC(=O)C2C1C=C(CO)C(=O)O` (stereo not shown) [Compound 5, hydroheptelidic acid], in [2] (MTT), the IC50 is above 200 µM and the “toxicity to Vero cells (in words)” value is on record as “low toxicity”. Also, in [4], the “activity against amastigote forms” value was “showed activity” and inhibition was half-maximal at 24.8 µM (IC50). In addition, the IC50 in data set [5] (THP-1, MTT, 72 h) was above 200 µM. In addition, in data set [5] (MTT), the “toxicity to THP-1 cells (in words)” value is “low toxicity”.
Regarding `CC(C)[C@H]1CC[C@H]2COC(=O)[C@H]2[C@@H]1/C=C(\CO)C(=O)O` [Compound 6, xylaric acid D], the IC50 is above 200 µM in data set [2] (MTT); above 200 µM in [4]; above 200 µM in data set [5] (THP-1, MTT, 72 h). Further, the “activity against amastigote forms” value in data set [4] was “activity against L. (V.) braziliensis was lost”.
For the compound `C=C1[C@@H](C)[C@H]2[C@H](Cc3ccccc3)NC(=O)[C@]23[C@H](OC(C)=O)/C=C/[C@@](C)(O)C(=O)[C@@H](C)C/C=C/[C@H]3[C@@H]1O` [Compound 7, (+)-cytochalasin D], the IC50 in [2] was above 200 µM; in data set [4] it was 72.6 µM; in data set [5] (THP-1, 72 h), above 200 µM. Further, the “effect on Leishmania attachment and intracellular amastigote load in macrophages (in words)” value in data set [10] is “reduce the attachment of Leishmania promastigotes and the intracellular amastigote load”.
Regarding `N=C(N)c1ccc(OCCCCCOc2ccc(C(=N)N)cc2)cc1` [Pentamidine, pentamidine], the “Log P [E]” value in [11] is reported as 4.
Take `CC[C@H]1OC(=O)[C@H](C)[C@@H](O[C@H]2C[C@@](C)(OC)[C@@H](O)[C@H](C)O2)[C@H](C)[C@@H](O[C@@H]2O[C@H](C)C[C@H](N(C)C)[C@H]2O)[C@](C)(O)C[C@@H](C)CN(C)[C@H](C)[C@@H](O)[C@]1(C)O` [azithromycin]: the IC50 in [3] was 5.7 µM.
Turning to `CC(C)[C@H]1CC[C@@]2(CO2)[C@H]2C(=O)OCC(C(=O)O)=C[C@H]12` [heptelidic acid], the “activity in vivo (in words)” value in [12] is given as “very modest activity in vivo”.
Regarding `CCCCCCCCCCCCCCCCOP(=O)([O-])OCC[N+](C)(C)C` [miltefosine], the IC50 in data set [3] was 0.8 to 5.4 µM.
On to `NC[C@@H]1O[C@H](O[C@H]2[C@@H](O)[C@H](O[C@@H]3[C@@H](O)[C@H](N)C[C@H](N)[C@H]3O[C@H]3O[C@H](CO)[C@@H](O)[C@H](O)[C@H]3N)O[C@@H]2CO)[C@H](N)[C@@H](O)[C@@H]1O` [paromomycin], for which, in [3], the IC50 is 234 to 344 µM.
In the case of Meglumine antimoniate, in [3], the IC50 was 178 to 330 µM.

Values taken from paper PMC5722265, “Leishmanicidal compounds of Nectria pseudotrichia, an endophytic fungus isolated from the plant Caesalpinia echinata (Brazilwood)” (Memórias do Instituto Oswaldo Cruz, 2018).
